In US10501453B2, “Benzothiazole or benzoxazole compounds as SUMO activators” (Icahn School of Medicine at Mount Sinai, priority 2012, dated 2019):

What was measured:
SERCA2a = experiment: Endogenous SERCA2a SUMOylation profiling and protein expression in ARVMs; assay type: cell-based, rat
Description: Calcium-tolerant adult rat ventricular myocytes (ARVMs) were obtained from hearts of male Sprague-Dawley rats (250 to 300 g). The heart was excised and perfused with a standard enzymatic technique. ARVMs were plated on multi-chambered plates or culture dishes, pre-coated with laminin 2 μg/cm^2, at a density of 10^5 cells/cm^2 in DMEM without L-glutamine supplemented with 10 mmol/l HEPES, 3.7 mg/ml NaHCO3, 1 mg/ml glucose, 0.11 mg/ml sodium pyruvate, 2 mg/ml bovine serum albumin, 2 mmol/1 L-camitine, 5 mmol/1 creatine, 5 mmol/1 taurine, 1% penicillin-streptomycin, and 1% gentamycin. Following isolation, cells were allowed to settle for 1 hour. Cultures were incubated at 37° C., in an atmosphere of 5% CO2-95% air. Fresh medium was added gently as medium was being drawn off until the cultures had been thoroughly washed. Only quiescent, rod-shape cardiac myocytes were selected for IonOptix experiments.
Equal amounts of protein from either small molecule treated or DMSO treated cells or immunoprecipitates were resolved by 7.5% SDS-PAGE and transferred to nitrocellulose membranes (Bio-Rad, catalog no. 162-0112). The membranes were blocked for 1 hour at room temperature with 5% non-fat milk (Cell Signaling Technology Inc., catalog no. 9999) in TBST (10 mM Tris-HCl, 150 mM NaCl, and 0.05% tween-20, pH 8.0). […]
The effects of the Example compound was examined on isolated rat cardiomyocytes shortening and relaxation parameters. […] Effects of Example 1 on mechanical properties of the ARVMs were assessed using a video-based edge detection system (IonOptix). The time constant of the increase of force during the stretch decreased (tau), percentage of peak shortening (PS), maximal rate of relaxation and contraction were analyzed at 24 hrs postincubation of the compounds in culture media (N=10 ARVMs). The mechanical data were analyzed with student's t-test (FIG. 2A, P<0.05 compared to the DMSO treated cells). SERCA2a SUMOylation profiling was analyzed in a same set of ARVMs (FIG. 2B, WCL, whole cell lysates; S-SERCA2a, SUMOylated SERCA2a). […]

sham-operated animals = experiment: Hemodynamics in sham-operated mice; assay type: in vivo, mouse
Description: Hemodynamics were measured to evaluate the acute effect of Example 1 infusion on the cardiac function of the mouse model of HF. In the first set of experiments, mice were exposed to pressure overload by thoracic aortic constriction (TAC) or sham operation and received either EXAMPLE 1 or vehicle. At two months post-TAC animals developed HF. […] In addition, the positive chronotropic effect of dobutamine was no longer observed in TAC mice (FIG. 9). Following cannulation of the carotid artery and external jugular vein, infusion of EXAMPLE 1 or vehicle was performed as described in Method section. Pressure and conductance catheters were introduced in the LV through the carotid artery. Pressure and volume measurements were made simultaneously and pressure volume curves were constructed as the vehicle or EXAMPLE 1 were infused.
Hemodynamic data were obtained in 1 mg of EXAMPLE 1-treated failing hearts at 30 min and 60 min after compound treatment. […] The improvement occurred within 30 minutes after treatment and maintained for 60 minutes after treatment. […] The effects of EXAMPLE 1 on various hemodynamic parameters are shown in FIG. 9b and Table S1. dP/dt max increased with increasing concentration of EXAMPLE 1 while Tau a parameter of relaxation decreased an indication of enhanced relaxation.

protein expression levels of E1, E2 enzymes, SERCA2a and SUMO-1 (SERCA2a; dose response): not changed
SMILES: COc1ccc(-c2nnc(Nc3nc4c(OC)cccc4s3)o2)cc1 [Example 1, N-(4-methoxybenzo[d]thiazol-2-yl)-5-(4-methoxyphenyl)-1,3,4-oxadiazol-2-amine]
levels of SERCA2a SUMOylation with increasing amount of compound (SERCA2a; dose response): increased levels of SERCA2a SUMOylation
endogenous SERCA2a SUMOylation (SERCA2a; isolated rodent adult cardiomyocytes): significantly increased
hemodynamic parameters in sham-operated groups (sham-operated animals): No statistically significant changes
